Measured values from patent US20240343666A1, “PERINAPHTHENONE COMPOUND AND USE THEREOF” (INSTITUTE OF MEDICINAL BIOTECHNOLOGY, CHINESE ACADEMY OF …, priority 2021, published 2024).
Read-outs that look alike come from different tables or passages of the source.

Columns and labels:
[1] = system: influenza A virus (IAV) A/WSN/33 (H1N1); assay: microbe, parasite or virus in culture; format: cell-based; details: read-out: Anti-influenza activity EC50
[2] = molecular target: influenza virus PA protein (UniProt P15659); format: cell-based; details: read-out: PA remaining EC50
[3] = Cell viability assay (CCK-8); format: cell-based; details: human; 293T-Gluc cells, CCK-8, 48 h
From the text: CCK-8 (Cell Counting Kit-8) kit is a rapid and highly sensitive detection kit based on WST-8 (water-soluble tetrazolium salt, chemical name: 2-(2-methyloxy-4-nitrophenyl)-3-(4-nitrophenyl)-5-(2,4-disulfophenyl)-2H-tetrazole monosodium salt) and widely applied to cell proliferation and cytotoxicity. WST-8 is a compound similar to MTT, and can be reduced by some dehydrogenases in mitochondria to produce orange-yellow formazan in the presence of an electron coupling reagent. The more and faster the cell proliferation, the darker the color; and the greater the cytotoxicity, the lighter the color. For the same cells, there is a linear relationship between the depth of color and the number of cells. The number of living cells can be indirectly reflected by measuring the light absorption value via an enzyme-linked immunosorbent assay instrument at a wavelength of 450 nm. 293T-Gluc cells were inoculated in a 96-well plate at 2.5×10^4 cells per well, and incubated in 100 μL of DMEM culture medium containing 10% FBS. 24 h after cell plating, 1 μL of the gradiently diluted test compound was added per well (the test compound was dissolved in DMSO and diluted with DMSO). Meanwhile, a blank control (only 100 μL of DMEM culture medium was added), a positive control (1 μL Ribavirin was added), and a negative control (1 μL DMSO was added) were set, and incubated at 37° C. for 48 h. The 96-well plate was taken out, and 10 μL of CCK-8 was added to each well. […] The experiment was repeated three times.

TRIM25 = TRIM25 (Homo sapiens, UniProt Q14258); assay: Biolayer interferometry (BLI) binding to TRIM25; details: in vitro
Sequence of TRIM25 (Q14258 whole entry, species assumed): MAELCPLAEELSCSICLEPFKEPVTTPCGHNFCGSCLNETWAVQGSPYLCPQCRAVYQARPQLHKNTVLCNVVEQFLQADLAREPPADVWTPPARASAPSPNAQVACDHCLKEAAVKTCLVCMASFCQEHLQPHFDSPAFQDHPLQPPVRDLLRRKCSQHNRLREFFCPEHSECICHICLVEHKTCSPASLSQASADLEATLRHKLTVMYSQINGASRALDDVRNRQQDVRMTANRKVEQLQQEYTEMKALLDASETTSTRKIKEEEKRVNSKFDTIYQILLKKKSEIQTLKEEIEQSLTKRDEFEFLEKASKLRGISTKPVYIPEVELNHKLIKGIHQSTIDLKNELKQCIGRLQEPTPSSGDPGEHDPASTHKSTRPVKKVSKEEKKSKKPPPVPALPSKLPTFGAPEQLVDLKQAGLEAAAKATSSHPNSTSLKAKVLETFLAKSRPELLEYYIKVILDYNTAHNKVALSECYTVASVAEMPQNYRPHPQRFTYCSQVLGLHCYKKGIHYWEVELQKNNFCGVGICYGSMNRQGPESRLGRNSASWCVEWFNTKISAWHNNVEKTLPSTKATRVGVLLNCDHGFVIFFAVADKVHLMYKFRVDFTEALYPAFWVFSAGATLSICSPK
From the text: (§1) To further investigate the mechanism of degradation of PA protein by compound C1, the inventors tested the binding ability of the compound to TRIM25 protein and PA protein using biolayer interferometry (BLI). […] Meanwhile, the compounds also have the ability of binding PA in vitro.

TRIM25 with PA protein = TRIM25 with PA protein (UniProt P15659+Q14258); assay: Interaction of TRIM25 with PA in HEK293T cells (co-immunoprecipitation); format: cell-based
PA protein [4] = molecular target: T1, PA protein (Influenza A virus, UniProt P15659); assay: Ubiquitination of PA protein in HEK293T cells (immunoprecipitation, Western Blotting); format: cell-based
PA protein [5] = molecular target: T1, PA protein; assay: Biolayer interferometry (BLI) binding to PA; details: in vitro
From the text: as §1

PA protein [6] = molecular target: T1, PA protein; assay: In vitro ubiquitination test; format: biochemical
PA protein [7] = molecular target: T1, PA protein; format: cell-based

SMILES	EC50 [1] [nM]	DC50 [2] [nM]	CC50 at 48 h [3] [nM]	Kd (TRIM25) [nM]	EC50 ([1]; Influenza A virus, 24 h) [nM]	Interaction of TRIM25 with PA protein (TRIM25 with PA protein)	Polyubiquitination level of PA protein in cells (PA protein [4])	Kd (PA protein [5]) [nM]	Polyubiquitination level of PA protein in vitro (PA protein [6])	Expression level of PA protein after treatment with proteasome inhibitor MG-132 (PA protein [7])	Restoration of PA protein after treatment with lysosome inhibitor ConA (PA protein [7])
CC(C)=CC1C/C(=C/CC/C(C)=C/CC/C(C)=C/C[C@]2(O)C(=O)c3c(O)cc(C)c4c(O)c(C)c(O)c(c34)C2=O)CO1 (some centres unmarked) [Compound C4]	1250 ± 10	1150 ± 170	> 100000	12000 to 43000							
C/C(=C\C[C@]1(O)C(=O)c2c(O)cc(C)c3c(O)c(C)c(O)c(c23)C1=O)CC/C=C(\C)CCC(O)[C@@]1(C)CC[C@H](C(C)(C)O)O1 (relative stereo) [Compound C10]	1220 ± 10	880 ± 80	> 100000	12000 to 43000							
CC(C)=CCC/C(C=O)=C\CC/C(C)=C/CC/C(C)=C/C[C@]1(O)C(=O)c2c(O)cc(C)c3c(O)c(C)c(O)c(c23)C1=O [Compound C3]	1420 ± 20	1140 ± 260	> 100000	12000 to 43000							
C/C(=C\C[C@]1(O)C(=O)c2c(O)cc(C)c3c(O)c(C)c(O)c(c23)C1=O)CC/C=C(\C)CCC(O)[C@@]1(C)CC[C@@H](C(C)(C)O)O1 (some centres unmarked) [Compound C9]	1020 ± 50	1040 ± 80	> 100000	12000 to 43000							
C/C(=C\CC/C(C)=C/C[C@]1(O)C(=O)c2c(O)cc(C)c3c(O)cc(O)c(c23)C1=O)CC/C=C(\CO)CC[C@@H](O)C(C)(C)O [Compound C11]	910 ± 80	620 ± 150	> 100000	12000 to 43000							
C/C(=C\CC/C(C)=C/C[C@]1(O)C(=O)c2c(O)cc(C)c3c(O)c(C)c(O)c(c23)C1=O)CC/C=C(\CCC1OC(C)(C)OC1(C)C)C(=O)O (some centres unmarked) [Compound C8]	550 ± 30	800 ± 120	> 100000	12000 to 43000	450 to 2220						
C/C(=C\CC/C(C)=C/C[C@]1(O)C(=O)c2c(O)cc(C)c3c(O)c(C)c(O)c(c23)C1=O)CC/C=C(\CO)CC[C@@H](O)C(C)(C)O [Compound C1]	450 ± 40	440 ± 90	> 100000	12000 to 43000	450 to 2220	can promote the interaction of TRIM25 with PA protein	can promote the polyubiquitination level of PA protein	11000	can promote the polyubiquitination level of PA protein in vitro	almost completely restored	hardly affected
CC(C)=CCC/C(=C/CC/C(C)=C/CC/C(C)=C/C[C@]1(O)C(=O)c2c(O)cc(C)c3c(O)c(C)c(O)c(c23)C1=O)CO [Compound C2]	580 ± 60	650 ± 120	> 100000	12000 to 43000	450 to 2220			58000			
C/C(=C\CC/C(C)=C/C[C@]1(O)C(=O)c2c(O)cc(C)c3c(O)c(C)c(O)c(c23)C1=O)C/C=C/C1(C)CCC(C(C)(C)O)O1 (some centres unmarked) [Compound C14]	1060 ± 90	1020 ± 30	> 100000	12000 to 43000							
NC(=O)c1ncn([C@@H]2O[C@H](CO)[C@@H](O)[C@H]2O)n1 [Ribavirin, reference compound]			> 100000		27800 ± 650						
C/C(=C\CC/C(C)=C/C[C@]1(O)C(=O)c2c(O)cc(C)c3c(O)c(C)c(O)c(c23)C1=O)CC/C=C(\CO)CCC1OC(C)(C)OC1(C)C (some centres unmarked) [Compound C7]	780 ± 20	1050 ± 190	> 100000	12000 to 43000	450 to 2220						
C/C(=C\CC/C(C)=C/C[C@]1(O)C(=O)c2c(O)cc(C)c3c(O)c(C)c(O)c(c23)C1=O)CC/C=C1/CCC(C(C)(C)O)OC1 (some centres unmarked) [Compound C13]	650 ± 10	710 ± 20	> 100000	12000 to 43000	450 to 2220						
C/C(=C\CC/C(C)=C/C[C@]1(O)C(=O)c2c(O)cc(C)c3c(O)c(C)c(O)c(c23)C1=O)CC/C=C(\C)CC[C@@H](O)C(C)(C)O [Compound C6]	2220 ± 40	2090 ± 520	> 100000	12000 to 43000							
CC(=O)OC(C=C(C)C)C/C(C)=C/CC/C(C)=C/CC/C(C)=C/C[C@]1(O)C(=O)c2c(O)cc(C)c3c(O)c(C)c(O)c(c23)C1=O (some centres unmarked) [Compound C5]	570 ± 80	730 ± 230	> 100000	12000 to 43000	450 to 2220						
CC(C)=CCC/C(=C/CC/C(C)=C/CC/C(C)=C/C[C@]1(O)C(=O)c2c(O)cc(C)c3c(O)c(C)c(O)c(c23)C1=O)C(=O)O [Compound C12]	920 ± 20	1070 ± 100	> 100000	12000 to 43000							
